US11331271B2, “Buccal, sublingual and intranasal delivery of fospropofol” (The Johns Hopkins University, priority 2016, dated 2022)

System: healthy volunteers
Assay: Human Study 2: treatment-emergent adverse events (TEAE), safety, Modified OAA/S, DSST, BIS
Type: in vivo
Conditions: for DSST mean change from baseline: 1 h post-treatment
Description: In human study 1, fospropofol disodium was formulated as a sterile aqueous solution at a concentration of 20 mg/mL. Each vial provided contained 20 mL of solution, suitable for intravenous injection. Fospropofol was administered as a single dose of 400 mg orally, directly into the duodenum by gastroscopy or intravenously over 10 min. In human study 2, fospropofol disodium in capsules (200 mg) or matching placebo was administered orally.
A second single ascending dose study was subsequently performed to assess the safety, tolerability, and pharmacokinetics of oral administration of fospropofol as a capsule. This was a double-blind, randomized, crossover, placebo-controlled, single ascending dose study. Ten healthy volunteers were enrolled, 6 males and 4 females between 18 and 45 years of age inclusive with a body mass index between 18 and 28 kg/m^2. Each subject received four ascending oral doses of fospropofol disodium (200, 600, 1,000 and 1,200 mg) and one of placebo. Placebo was administered randomly, in one of the five periods. Subjects stayed in the clinical research unit over 3 days per treatment for five consecutive treatments. Between treatments, there were wash-out periods of at least 6 days, during which interim safety evaluations were made to assess the safety of the subsequent higher doses. Fopropofol disodium in capsules (200 mg) or matching placebo was administered orally. Pharmacokinetic parameters, safety and pharmacodynamic effect were assessed in a manner similar to that in Study 1 described above. In addition, the digit symbol substitution test (DSST) and BIS Index (a commercially available EEG derived measure of anesthesia and sedation, Coviden, Mansfield, Mass., USA) were added as additional pharmacodynamics measures.

[1] = 200 mg oral, listed as Fospropofol
[2] = 600 mg oral, listed as Fospropofol
[3] = 1000 mg oral, listed as Fospropofol
[4] = 1200 mg oral, listed as Fospropofol

Structure (SMILES): CC(C)c1cccc(C(C)C)c1OCOP(=O)(O)O [fospropofol]
- BIS score range (200 mg): 80-98%
- TEAE EYE DISORDERS, subjects (%) (200 mg oral): (10%)
- TEAE GASTROINTESTINAL DISORDERS, events (E) (200 mg oral): 2
- TEAE GASTROINTESTINAL DISORDERS, subjects (%) (200 mg oral): (10%)
- TEAE GENERAL DISORDERS AND ADMINISTRATION SITE CONDITIONS, subjects (%) (200 mg oral): (10%)
- TEAE INFECTIONS AND INFESTATIONS, subjects (%) (200 mg oral): (10%)
- TEAE MUSCULOSKELETAL AND CONNECTIVE DISORDERS, subjects (%) (200 mg oral): (10%)
- TEAE NERVOUS SYSTEM DISORDERS, events (E) (200 mg oral): 10
- TEAE NERVOUS SYSTEM DISORDERS, subjects (%) (200 mg oral): (70%)
- TEAE RESPIRATORY THORACIC AND MEDIASTINAL DISORDERS, subjects (%) (200 mg oral): (10%)
- TEAE TOTAL, events (E) (200 mg oral): 18
- TEAE TOTAL, subjects (%) (200 mg oral): 80%
- TEAE VASCULAR DISORDERS, subjects (%) (200 mg oral): (10%)
- TEAE abdominal pain, subjects (%) (200 mg oral): (10%)
- TEAE eye irritation, subjects (%) (200 mg oral): (10%)
- TEAE feeling hot, subjects (%) (200 mg oral): (10%)
- TEAE nausea, subjects (%) (200 mg oral): (10%)
- TEAE paraesthesia oral, subjects (%) (200 mg oral): (30%)
- TEAE paraesthesia, events (E) (200 mg oral): 3
- TEAE paraesthesia, subjects (%) (200 mg oral): (20%)
- TEAE pharyngolaryngeal pain, subjects (%) (200 mg oral): (10%)
- TEAE rhinitis, subjects (%) (200 mg oral): (10%)
- TEAE sensation of heaviness, subjects (%) (200 mg oral): (10%)
- TEAE somnolence, subjects (%) (200 mg oral): 40%
- TEAE vein pain, subjects (%) (200 mg oral): (10%)
- TEAE TOTAL, subjects (%) [1]: (80%)
- TEAE somnolence, subjects (%) [1]: (10%)
- DSST mean change from baseline (200 mg): 6
- BIS score range (600 mg): 71-98%
- TEAE GASTROINTESTINAL DISORDERS, events (E) (600 mg oral): 4
- TEAE GASTROINTESTINAL DISORDERS, subjects (%) (600 mg oral): (30%)
- TEAE GENERAL DISORDERS AND ADMINISTRATION SITE CONDITIONS, events (E) (600 mg oral): 5
- TEAE GENERAL DISORDERS AND ADMINISTRATION SITE CONDITIONS, subjects (%) (600 mg oral): (40%)
- TEAE NERVOUS SYSTEM DISORDERS, events (E) (600 mg oral): 16
- TEAE NERVOUS SYSTEM DISORDERS, subjects (%) (600 mg oral): (70%)
- TEAE PSYCHIATRIC DISORDERS, subjects (%) (600 mg oral): (10%)
- TEAE REPRODUCTIVE SYSTEM AND BREAST DISORDERS, subjects (%) (600 mg oral): (10%)
- TEAE RESPIRATORY THORACIC AND MEDIASTINAL DISORDERS, subjects (%) (600 mg oral): (10%)
- TEAE TOTAL, events (E) (600 mg oral): 29
- TEAE TOTAL, subjects (%) (600 mg oral): 90%
- TEAE VASCULAR DISORDERS, subjects (%) (600 mg oral): (10%)
- TEAE abdominal pain, subjects (%) (600 mg oral): (10%)
- TEAE bowel sounds abnormal, subjects (%) (600 mg oral): (10%)
- TEAE dizziness, subjects (%) (600 mg oral): (20%)
- TEAE dysgeusia, subjects (%) (600 mg oral): (10%)
- TEAE euphoric mood, subjects (%) (600 mg oral): (10%)
- TEAE fatigue, subjects (%) (600 mg oral): (20%)
- TEAE feeling hot, subjects (%) (600 mg oral): (30%)
- TEAE headache, events (E) (600 mg oral): 3
- TEAE headache, subjects (%) (600 mg oral): (20%)
- TEAE nausea, subjects (%) (600 mg oral): (10%)
- TEAE paraesthesia, subjects (%) (600 mg oral): (50%)
- TEAE perineal pain, subjects (%) (600 mg oral): (10%)
- TEAE pharyngolaryngeal pain, subjects (%) (600 mg oral): (10%)
- TEAE phlebitis superficial, subjects (%) (600 mg oral): (10%)
- TEAE proctalgia, subjects (%) (600 mg oral): (10%)
- TEAE somnolence, subjects (%) (600 mg oral): 50%
- TEAE TOTAL, subjects (%) [2]: (90%)
- TEAE somnolence, subjects (%) [2]: (50%)
- DSST mean change from baseline (600 mg): −5
- BIS score range (1,000 mg): 70-98%
- TEAE CARDIAC DISORDERS, subjects (%) (1000 mg oral): (10%)
- TEAE GASTROINTESTINAL DISORDERS, subjects (%) (1000 mg oral): (40%)
- TEAE GENERAL DISORDERS AND ADMINISTRATION SITE CONDITIONS, subjects (%) (1000 mg oral): (30%)
- TEAE NERVOUS SYSTEM DISORDERS, events (E) (1000 mg oral): 14
- TEAE NERVOUS SYSTEM DISORDERS, subjects (%) (1000 mg oral): (70%)
- TEAE REPRODUCTIVE SYSTEM AND BREAST DISORDERS, subjects (%) (1000 mg oral): (10%)
- TEAE RESPIRATORY THORACIC AND MEDIASTINAL DISORDERS, subjects (%) (1000 mg oral): (10%)
- TEAE TOTAL, events (E) (1000 mg oral): 28
- TEAE TOTAL, subjects (%) (1000 mg oral): 80%
- TEAE VASCULAR DISORDERS, events (E) (1000 mg oral): 4
- TEAE VASCULAR DISORDERS, subjects (%) (1000 mg oral): (30%)
- TEAE dysphagia, subjects (%) (1000 mg oral): (10%)
- TEAE fatigue, subjects (%) (1000 mg oral): (10%)
- TEAE feeling hot, subjects (%) (1000 mg oral): (20%)
- TEAE headache, subjects (%) (1000 mg oral): (20%)
- TEAE nausea, subjects (%) (1000 mg oral): (30%)
- TEAE palpitations, subjects (%) (1000 mg oral): (10%)
- TEAE paraesthesia oral, subjects (%) (1000 mg oral): (10%)
- TEAE paraesthesia, events (E) (1000 mg oral): 7
- TEAE paraesthesia, subjects (%) (1000 mg oral): (60%)
- TEAE perineal pain, subjects (%) (1000 mg oral): (10%)
- TEAE phlebitis superficial, events (E) (1000 mg oral): 4
- TEAE phlebitis superficial, subjects (%) (1000 mg oral): (30%)
- TEAE somnolence, subjects (%) (1000 mg oral): 40%
- TEAE throat irritation, subjects (%) (1000 mg oral): (10%)
- subjects with somnolence considered severe (1000 mg oral): 1
- TEAE TOTAL, subjects (%) [3]: (80%)
- TEAE somnolence, subjects (%) [3]: (40%)
- DSST mean change from baseline (1,000 mg): −11
- lowest Modified OAA/S score (1,000 mg, Subject 003, 1 and 1.5 h after treatment): 3
- BIS score range (1,200 mg): 70-98%
- TEAE GASTROINTESTINAL DISORDERS, subjects (%) (1200 mg oral): (30%)
- TEAE GENERAL DISORDERS AND ADMINISTRATION SITE CONDITIONS, events (E) (1200 mg oral): 6
- TEAE GENERAL DISORDERS AND ADMINISTRATION SITE CONDITIONS, subjects (%) (1200 mg oral): (30%)
- TEAE INFECTIONS AND INFESTATIONS, subjects (%) (1200 mg oral): (14%)
- TEAE NERVOUS SYSTEM DISORDERS, events (E) (1200 mg oral): 13
- TEAE NERVOUS SYSTEM DISORDERS, subjects (%) (1200 mg oral): (90%)
- TEAE PSYCHIATRIC DISORDERS, subjects (%) (1200 mg oral): (10%)
- TEAE REPRODUCTIVE SYSTEM AND BREAST DISORDERS, subjects (%) (1200 mg oral): (10%)
- TEAE RESPIRATORY THORACIC AND MEDIASTINAL DISORDERS, subjects (%) (1200 mg oral): (10%)
- TEAE TOTAL, events (E) (1200 mg oral): 26
- TEAE TOTAL, subjects (%) (1200 mg oral): 90%
- TEAE VASCULAR DISORDERS, subjects (%) (1200 mg oral): (10%)
- TEAE defecation urgency, subjects (%) (1200 mg oral): (10%)
- TEAE dyspnoea, subjects (%) (1200 mg oral): (10%)
- TEAE euphoric mood, subjects (%) (1200 mg oral): (10%)
- TEAE fatigue, subjects (%) (1200 mg oral): (10%)
- TEAE feeling hot, events (E) (1200 mg oral): 4
- TEAE feeling hot, subjects (%) (1200 mg oral): (30%)
- TEAE headache, subjects (%) (1200 mg oral): (10%)
- TEAE nausea, subjects (%) (1200 mg oral): (20%)
- TEAE paraesthesia oral, subjects (%) (1200 mg oral): (10%)
- TEAE paraesthesia, subjects (%) (1200 mg oral): (30%)
- TEAE perineal pain, subjects (%) (1200 mg oral): (10%)
- TEAE somnolence, subjects (%) (1200 mg oral): 80%
- TEAE vein pain, subjects (%) (1200 mg oral): (10%)
- subjects with somnolence considered severe (1200 mg oral): 1
- TEAE TOTAL, subjects (%) [4]: (90%)
- TEAE somnolence, subjects (%) [4]: (80%)
- subjects with Modified OAA/S score of 4 (1,200 mg, 1.5-h time point): 40%
- DSST mean change from baseline (1,200 mg): −13
- laboratory values, vital signs, ECGs, physical examinations (200-1,200 mg oral): no changes
- serious adverse events (200-1,200 mg oral): No subject experienced a SAE
- severity of most TEAEs (Study 2): mild or moderate
- nausea, rate of occurrence (Study 2, all treatments): 50%
- paresthesia, rate of occurrence (Study 2, all treatments): 60%
- phlebitis superficial, rate of occurrence (Study 2, all treatments): 50%
- mean BIS scores (all time points, all treatments): > 90%
- subjects with Modified OAA/S score of 5 (at most time points, each treatment group): ≥ 80%
